Measurements from patent US20060052435A1, “Selective dopamin d3 receptor agonists for the treatment of sexual dysfunction” (priority 2001, published 2006).
Read-outs that look alike come from different tables or passages of the source.

Assays:
New Zealand rabbits = assay: male and female anaesthetised rabbit, pelvic nerve stimulation; assay type: in vivo
Protocol: 1.1.1 Male and Female Anaesthetised Rabbit Methodology
Male and female New Zealand rabbits (˜2.5 kg) were pre-medicated with a combination of Medetomidine (Domitor®) 0.5 ml/kg i.m., and Ketamine (Vetalar®) 0.25 ml/kg i.m. whilst maintaining oxygen intake via a face mask. The rabbits were tracheotomised using a Portex™ uncuffed endotracheal tube 3 ID., connected to ventilator and maintained at a ventilation rate of 30-40 breaths per minute, with an approximate tidal volume of 18-20 ml, and a maximum airway pressure of 10 cm H2O. Anaesthesia was then switched to Isoflurane and ventilation continued with O2 at 2 l/min. The right marginal ear vein was cannulated using a 23 G or 24 G catheter, and Lactated Ringer solution perfused at 0.5 ml/min. The rabbit was maintained at 3% Isoflurane during invasive surgery, dropping to 2% for maintenance anaesthesia. The left jugular vein was exposed, isolated and then cannulated with a PVC catheter (17 G) for the infusion of drugs and compounds.
The left groin area of the rabbit was shaved and a vertical incision was made approximately 5 cm in length along the thigh. The femoral vein and artery were exposed, isolated and then cannulated with a PVC catheter (17 G) for the infusion of drugs and compounds. Cannulation was repeated for the femoral artery, inserting the catheter to a depth of 10 cm to ensure that the catheter reached the abdominal aorta. This arterial catheter was linked to a Gould system to record blood pressure. Samples for blood gas analysis were also taken via the arterial catheter. Systolic and diastolic pressures were measured, and the mean arterial pressure calculated using the formula (diastolic×2+systolic)÷3. Heart rate was measured via the pulse oxymeter and Po-ne-mah data acquisition software system (Ponemah Physiology Platform, Gould Instrument Systems, Inc.).
A ventral midline incision was made into the abdominal cavity. The incision was about 5 cm in length just above the pubis. The fat and muscle was bluntly dissected away to reveal the hypogastric nerve which runs down the body cavity. It was essential to keep close to the side curve of the pubis wall in order to avoid damaging the femoral vein and artery which lie above the pubis. The sciatic and pelvic nerves lie deeper and were located after further dissection on the dorsal side of the rabbit. Once the sciatic nerve is identified, the pelvic nerve was easily located. The term pelvic nerve is loosely applied; anatomy books on the subject fail to identify the nerves in sufficient detail. However, stimulation of the nerve causes an increase in vaginal and clitoral blood flow in females and in intracavernosal pressure and cavernosal blood flow in males, and innervation of the pelvic region. […]

[1] = target: D3 receptors over D2 receptors (Homo sapiens, UniProt P35462); settings: GTPγS assay; cited from earlier work
telemetry rats = assay: rat telemetry model of erection (intracavernosal pressure); assay type: in vivo; settings: for agonist-induced erectile activity with concomitant L-741,626 and SB-277,011: L-741,626 2 mg/kg s.c. and SB-277,011 3 mg/kg s.c.; for proerectile effect (words): male models of erection / telemetry rats, agonist alone
Protocol: Erectile responses were recorded by measuring intracavernosal pressure and/or clitoral/vaginal blood flow using surgically implanted telemetric device. The specific details of the surgical procedures, data acquisition and analysis can be found in detail in Bernabe J, Rampin O, Sachs B D, Giuliano F. Intracavernous pressure during erection in rats: an integrative approach based on telemetric recording. Am. J. Physiol.

dopamine D3 receptor = dopamine D3 receptor (Homo sapiens, UniProt P35462); assay: cell-based
[2] = target: human dopamine D2 long receptor (Homo sapiens, UniProt P14416)
anaesthetised dog [3] = assay: haemodynamics in the anaesthetised dog; assay type: in vivo
Description: Male beagles were anaesthetised with a mixture of chloralose and urethane, following pre-medication with piritramide. They were instrumented to measure arterial blood pressure, cardiac output, E.C.G., pudendal artery blood flow (PAF) and intra-cavernosal pressure (ICP). Other parameters such as heart rate and vascular resistance were derived from the primary signals. Following a period of equilibration, a series of control readings were taken and the effects of pelvic nerve stimulation at 4 and 8 Hz, on ICP and PAF were measured. Compounds were administered subcutaneously in the dorsal neck region via an implanted catheter, in the dose range of 0.3-3000 μg(base)/kg. Following each dose, parameters were measured at fixed intervals for 30 min.
Results were analysed as percent change from the final control values for each dog and mean values for three dogs were used.

anaesthetised dog [4] = assay: emesis in the chloralose anaesthetised dog; settings: male, beagle, dog, in vivo, sc, 30 min
Protocol: Male beagles, 11-17 kg were used. Following an overnight fast, animals were anaesthetised with chloralose (80 mg kg^−1 i.v.), having first been injected with an anaesthetic dose of the short acting barbiturate, thiopentone (15 mg kg^−1 i.v.). Following tracheal intubation, which ensured a patent airway even during the expulsion phase of the emetic response, the left femoral vein and artery were cannulated for further administration of anaesthetic and for recording haemodynamic parameters, respectively. […] During the stabilisation period, respiratory rate was monitored to ensure that central respiratory centres were not deeply depressed, since the CNS efferent component of the emetic reflex is essentially conveyed via respiratory motor neurones. […] Animals were observed closely for 30 min post-dose and motor (e.g. swallowing, eye blinking, limb movements, changes in respiratory rate and depth, retching and vomiting) and haemodynamic changes noted and recorded. […] At the end of an experiment animals were sacrificed with an overdose of pentobarbitone.
Observations made on individual animals were used to determine the percentage of animals that retched when injected with a particular dose level of test compound. Percentage of animals retching was then used to construct a dose response curve and an ED50 value determined from the appropriate curve.

D2 [5] = target: T1, D2 (Homo sapiens, UniProt P14416); settings: WO 93/23035; cited from earlier work
D3 = D3 (Homo sapiens, UniProt P35462); settings: WO 93/23035; cited from earlier work
[6] = target: human recombinant D3 (hD3) receptors (Homo sapiens, UniProt P35462, G9S); assay: inhibition of binding of [3H]-R(+)-7-OH-DPAT; settings: n = 3-11
ferrets = assay: 7-OH-DPAT-induced emesis in the ferret; assay type: in vivo; settings: for Antagonist potency ED100 versus 7-OH-DPAT-induced emesis: s.c., minimum dose completely inhibiting emesis in all animals, n = 3
[7] = unbound plasma and whole brain concentrations in anaesthetised ferrets; settings: s.c. dosing at the ED100 dose, n = 1
[8] = target: human recombinant D2short (hD2s) receptors (Homo sapiens, UniProt P14416); assay: inhibition of binding of [3H]-spiperone; settings: n = 3-11
D1 receptor = D1 receptor (Homo sapiens, UniProt P21728); settings: quoted abstract; cited from earlier work
[9] = system: ovariectomized, partially hormone-repleted female rats; settings: 50 ug/kg P.O., 15-30 min after dosing; from 22+/−8%; cited from earlier work
male rhesus monkeys = settings: 20 and 50 ug/kg P.O., evaluated for 4 hr; cited from earlier work
D2 [10] = target: T1, D2; settings: quoted abstract; cited from earlier work
[11] = ferret, in vivo, sc

Sequence of human dopamine D2 long receptor (P14416 whole entry): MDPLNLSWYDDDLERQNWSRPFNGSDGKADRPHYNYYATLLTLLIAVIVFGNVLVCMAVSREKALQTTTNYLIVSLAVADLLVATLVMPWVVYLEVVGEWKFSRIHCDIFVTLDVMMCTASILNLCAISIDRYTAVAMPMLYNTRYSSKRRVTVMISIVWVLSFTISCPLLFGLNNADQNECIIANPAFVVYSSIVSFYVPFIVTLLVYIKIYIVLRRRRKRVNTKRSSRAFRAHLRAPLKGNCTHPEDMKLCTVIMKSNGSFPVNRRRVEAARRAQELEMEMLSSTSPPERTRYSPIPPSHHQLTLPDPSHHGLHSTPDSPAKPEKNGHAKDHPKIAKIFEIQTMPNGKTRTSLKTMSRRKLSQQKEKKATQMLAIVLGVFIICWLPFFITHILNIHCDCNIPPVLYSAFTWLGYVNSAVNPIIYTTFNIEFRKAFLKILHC
T1 sequence (P14416 whole entry): as above
Sequence of human recombinant D2short (hD2s) receptors (P14416 1-414 isoform P14416-2): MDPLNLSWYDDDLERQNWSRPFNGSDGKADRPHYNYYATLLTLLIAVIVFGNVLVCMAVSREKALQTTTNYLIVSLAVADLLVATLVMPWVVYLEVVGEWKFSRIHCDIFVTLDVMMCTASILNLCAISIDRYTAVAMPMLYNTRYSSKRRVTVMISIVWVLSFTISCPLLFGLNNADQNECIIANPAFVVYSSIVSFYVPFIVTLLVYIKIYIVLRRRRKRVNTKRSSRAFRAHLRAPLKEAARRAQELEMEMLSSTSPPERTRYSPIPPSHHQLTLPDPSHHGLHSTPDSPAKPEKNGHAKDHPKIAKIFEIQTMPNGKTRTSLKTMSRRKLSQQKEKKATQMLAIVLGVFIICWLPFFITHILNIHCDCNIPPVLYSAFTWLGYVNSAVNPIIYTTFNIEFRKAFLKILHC
Sequence of D1 receptor (P21728 whole entry): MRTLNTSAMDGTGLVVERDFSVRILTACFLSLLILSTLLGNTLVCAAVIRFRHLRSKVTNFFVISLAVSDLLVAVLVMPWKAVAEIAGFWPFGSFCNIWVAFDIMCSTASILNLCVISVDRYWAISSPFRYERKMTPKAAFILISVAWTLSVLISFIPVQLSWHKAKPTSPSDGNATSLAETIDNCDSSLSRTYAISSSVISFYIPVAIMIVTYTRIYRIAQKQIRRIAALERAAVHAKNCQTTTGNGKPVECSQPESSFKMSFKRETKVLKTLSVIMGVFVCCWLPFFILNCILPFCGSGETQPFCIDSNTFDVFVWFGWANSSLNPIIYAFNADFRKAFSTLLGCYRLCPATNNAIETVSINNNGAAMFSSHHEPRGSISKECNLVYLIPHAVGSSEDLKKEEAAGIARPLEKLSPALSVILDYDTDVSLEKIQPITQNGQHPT
Sequence of human recombinant D3 (hD3) receptors (P35462 whole entry G9S): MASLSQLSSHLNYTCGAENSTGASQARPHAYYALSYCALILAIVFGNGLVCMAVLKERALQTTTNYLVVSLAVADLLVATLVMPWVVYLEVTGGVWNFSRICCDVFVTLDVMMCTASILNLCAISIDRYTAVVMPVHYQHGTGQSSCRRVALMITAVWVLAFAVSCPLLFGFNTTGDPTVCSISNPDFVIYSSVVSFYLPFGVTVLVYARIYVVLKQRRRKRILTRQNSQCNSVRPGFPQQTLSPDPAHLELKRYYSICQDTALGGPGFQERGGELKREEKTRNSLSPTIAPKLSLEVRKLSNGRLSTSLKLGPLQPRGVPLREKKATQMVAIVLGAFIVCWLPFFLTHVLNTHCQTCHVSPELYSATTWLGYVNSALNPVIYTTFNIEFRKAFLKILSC
Sequence of dopamine D3 receptor (P35462 whole entry, species assumed): as the sequence (P35462 whole entry G9S) above, with S9G counted along it
Sequence of D3 receptors over D2 receptors (P35462 whole entry, species assumed): as the sequence (P35462 whole entry G9S) above, with S9G counted along it
Sequence of D3 (P35462 whole entry, species assumed): as the sequence (P35462 whole entry G9S) above, with S9G counted along it

## CCCN1CCO[C@H]2c3cc(C(N)=O)ccc3CC[C@@H]21 [Example S32504]
New Zealand rabbits
  penile intracavernosal pressure and cavernosal blood flow in male rabbits: beneficially enhances
  vaginal and clitoral blood flow in female rabbits: beneficially enhances
[1]
  selectivity for D3 receptors over D2 receptors: 251 fold

## CCCNC1CCc2nc(N)sc2C1.Cl.Cl (stereo not shown) [Pramipexole, 2-amino-4,5,6,7-tetrahydro-6-propylamino-benzthiazole-dihydrochloride]
Telemetry rats
  agonist-induced erectile activity with concomitant L-741,626 and SB-277,011: abolishes all pramipexole-induced erectile activity
  proerectile effect (words): induces a proerectile effect
Telemetry rats; Pramipexole 0.1 μg/kg s.c.
  No of erectogenic events/15 min: 2.8 ± 0.2 n = 5 erectogenic events/15 min
Telemetry rats; listed as pramipexole
  proerectile effect (words): induce/enhance proerectile effects
Dopamine D3 receptor
  EC50: 0.62 nM

## CCCN1CCOC(c2ccc(O)c(C(N)=O)c2)C1 (stereo not shown) [Example 35, 2-Hydroxy-5-(4-propylmorpholin-2-yl)benzamide]
[2]
  EC50: ~10500 nM

## CCCN1CCOC(c2ccc(F)c(O)c2)C1 (single isomer, unassigned) [Example 23a, R-(+)-2-Fluoro-5-(4-propylmorpholin-2-yl)phenol]
[2]
  EC50: > 5000 nM

## CN1CCc2cccc3c2[C@H]1Cc1ccc(O)c(O)c1-3 [Apomorphine]
Anaesthetised dog [3]; dog, in vivo
  Geometric mean ED30 (fall in TPR): 11.7 μg/kg s.c.
  cardiac output at the highest dose levels: approximately doubled
Anaesthetised dog [3]; s.c.
  effect on cardiac output and heart rate: increases in cardiac output and heart rate
Anaesthetised dog [3]; s.c., doses up to 3000 μg/kg
  effect on total vascular resistance (TVR; TPR): reduction in total vascular resistance
Telemetry rats
  proerectile effect (words): induce/enhance proerectile effects

## CCCN1CCC[C@@H]2Cc3nc(N)ncc3C[C@H]21 [Quinelorane]
[2]
  EC50: 6.1 nM

## CCCN1CCOC(c2ccc(O)c(N)c2)C1 (stereo not shown) [Example 37, 2-Amino-4-(4-propylmorpholin-2-yl)phenol]
[2]
  EC50: > 100000 nM

## CCCN1CCOC(c2ccc(F)c(O)c2)C1 (racemic) [Example 23a + 23b (racemate)]
[2]
  EC50: > 5000 nM

## c1ccc(N2CCN(C[C@H]3CC[C@H](Nc4ncccn4)CC3)CC2)cc1 [trans-[4-[(4-Phenylpiperazin-1-yl)methyl]cyclohexyl]-pyrimidin-2-ylamine]
Anaesthetised dog [3]; dog, in vivo
  Geometric mean ED30 (fall in TPR): 44.6 μg/kg s.c.
  cardiac output at the highest dose levels: approximately doubled
Anaesthetised dog [3]; dog, in vivo, sc
  effect on cardiac output and heart rate: increases in cardiac output and heart rate
Telemetry rats; L-741,626 2 mg/kg s.c.
  erectogenic effect in the presence of selective D2 receptor antagonist L-741,626: abolished
Telemetry rats
  proerectile effect (words): produced erections
[2]
  EC50: 3.8 nM
Anaesthetised dog [4]
  dose at which emesis was observed: 0.1 mg/kg

## CCCN(CCC)CCc1cccc2c1CC(=O)N2 [Ropinirole]
D2 [5]
  binding D2: 1380 nM
[2]
  EC50: 16.1 nM
D3
  binding D3: 69 nM

## CCCN1CCOC(c2cc(O)cc(O)c2)C1 (single isomer, unassigned) [Example 15a, R-5-(4-Propylmorpholin-2-yl)benzene-1,3-diol]
[2]
  EC50: 1750 nM

## OC1(c2ccc(Cl)cc2)CCN(Cc2c[nH]c3ccccc23)CC1 [L-741,626]
[6]
  Affinity estimates (pKi ± s.e.m.) hD3: 6.6 ± 0.24
ferrets
  Antagonist potency ED100 versus 7-OH-DPAT-induced emesis: 3 mg/kg
[7]
  Brain conc^n: 250 ng/g

## CCCN(CCC)[C@@H]1CCc2cc(CS(=O)(=O)c3ccc(OC)cc3)ccc2C1 [GR218231]
ferrets; highest dose of 10 mg/kg
  animals in which emesis was blocked: ⅔
ferrets
  Antagonist potency ED100 versus 7-OH-DPAT-induced emesis: >10 mg/kg
[7]
  Brain conc^n: 1670 ng/g
  Plu/Ki hD2s (ratio of unbound plasma concentration to binding affinity): 1.3
  Plu/Ki hD3 (ratio of unbound plasma concentration to binding affinity): 95
[8]
  Affinity estimates (pKi ± s.e.m.) hD2s: 6.8 ± 0.44

## CN[C@@H]1Cc2cccc3[nH]c(=S)n(c23)C1 [PNU-142774E]
D1 receptor
  Ki: > 7000 nM
[9]
  lordosis/mounts ratio (L/M): 65+/−10%
Male rhesus monkeys
  non-contact sexual behavior (erections, masturbation): increase in sexual behavior
D2 [10]
  Ki: 7 nM

## CCc1cc(Cl)c(OC)c(C(=O)NC[C@@H]2CCCN2CC)c1O [(S)-eticlopride]
ferrets
  Antagonist potency ED100 versus 7-OH-DPAT-induced emesis: 0.03 mg/kg
[8]; read-out: Affinity estimates (pKi ± s.e.m.) hD2s (converted)
  Ki: 0.501 nM
[11]
  Brain conc^n: 377 ng/g

## CCCN(CCC)C1CCc2ccc(O)cc2C1 (stereo not shown) [Example 7-OH-DPAT]
Telemetry rats
  agonist-induced erectile activity with concomitant L-741,626 and SB-277,011: abolishes all 7-OH-DPAT-induced erectile activity
  proerectile effect (words): induce/enhance proerectile effects
ferrets; 0.1 mg/kg s.c., observed for 6 h, control animals
  emetic response, total retches and vomits (mean±s.e.m.): 78.0±9.0

## CCCN1CCOC(c2cc(O)cc(O)c2)C1 (racemic) [Example 15a + 15b (racemate)]
[2]
  EC50: > 10000 nM
